Experimental data: ChEMBL document CHEMBL1201862, “PubChem BioAssay data set” (2004)
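Exposure lasted 48 hours, with cells grown in 96-well plates and compounds tested at five concentrations. At the GI50, growth is halved.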 The source made the active and inactive calls. Cut-off read from the data, not from the text of the source: active = GI50 up to about 1.1 µM and inactive = higher.

What was measured:
Assay in all cases: inhibition of tumour cell growth, NCI panel, 48 h
NCI-H522 = test system: NCI-H522
LOX IMVI = test system: LOX IMVI
UO-31 = test system: UO-31
786-0 = test system: 786-0
SNB-19 = test system: SNB-19
EKVX = test system: EKVX
MDA-N = test system: MDA-N
PC-3 = test system: PC-3
HCT-116 = test system: HCT-116
OVCAR-5 = test system: OVCAR-5
NCI-H226 = test system: NCI-H226
T47D = test system: T47D
SK-MEL-28 = test system: SK-MEL-28
KM12 = test system: KM12
MOLT-4 = test system: MOLT-4
TK-10 = test system: TK-10
RXF 393 = test system: RXF 393
NCI-H460 = test system: NCI-H460
SF-539 = test system: SF-539

Measured: GI50

Oc1c(/N=N\c2ccccc2)c2cccc3ccc4cccc1c4c32
inactive: NCI-H522 > 100 µM | LOX IMVI > 100 µM | UO-31 > 100 µM | 786-0 43.7 µM | SNB-19 > 100 µM | EKVX > 100 µM | MDA-N > 100 µM | PC-3 > 100 µM | HCT-116 > 100 µM | OVCAR-5 > 100 µM | NCI-H226 > 100 µM | T47D > 100 µM | SK-MEL-28 > 100 µM | KM12 > 100 µM | MOLT-4 > 100 µM | TK-10 > 100 µM | RXF 393 > 100 µM

CNC(c1ccncc1)C(NC)c1ccncc1 (stereo not given)
inactive: NCI-H522 > 100 µM | LOX IMVI > 100 µM | UO-31 > 100 µM | 786-0 > 100 µM | SNB-19 > 100 µM | EKVX > 100 µM | MDA-N > 100 µM | PC-3 > 100 µM | HCT-116 > 100 µM | OVCAR-5 > 100 µM | NCI-H226 > 100 µM | T47D > 100 µM | SK-MEL-28 > 100 µM | KM12 > 100 µM | MOLT-4 > 100 µM | TK-10 > 100 µM | RXF 393 > 100 µM

CC(C)(NO)/C(=N\O)c1ccccc1
inactive: NCI-H522 > 10 µM | UO-31 > 10 µM | NCI-H460 > 10 µM | 786-0 > 10 µM | SNB-19 > 10 µM | EKVX > 10 µM | MDA-N > 10 µM | PC-3 > 10 µM | HCT-116 > 10 µM | OVCAR-5 > 10 µM | NCI-H226 > 10 µM | T47D > 10 µM | KM12 > 10 µM | MOLT-4 > 10 µM | TK-10 > 10 µM | RXF 393 > 10 µM

CC(=O)NCC1OC2COC(c3ccccc3)OC2C(NC(=O)c2ccccc2)C1OC(=O)c1ccccc1 (stereo not given)
inactive: LOX IMVI > 100 µM | UO-31 > 100 µM | NCI-H460 > 100 µM | SF-539 > 100 µM | 786-0 > 100 µM | SNB-19 > 100 µM | EKVX > 100 µM | MDA-N > 100 µM | PC-3 33.3 µM | HCT-116 > 100 µM | OVCAR-5 > 100 µM | NCI-H226 > 100 µM | T47D 34.5 µM | SK-MEL-28 > 100 µM | KM12 > 100 µM | MOLT-4 86.7 µM | TK-10 > 100 µM | RXF 393 35 µM

COC(=NCCC1=CCCCC1)OC
inactive: NCI-H522 32.4 µM | UO-31 53 µM | NCI-H460 57.1 µM | 786-0 81.3 µM | SNB-19 > 100 µM | EKVX 69 µM | MDA-N 95.3 µM | PC-3 85.7 µM | HCT-116 32.8 µM | OVCAR-5 51.3 µM | T47D 32.9 µM | SK-MEL-28 44.7 µM | KM12 78.9 µM | MOLT-4 52.2 µM | TK-10 > 100 µM | RXF 393 > 100 µM

CN(C)c1ccc(/C=C2\N=C(N/N=C/c3ccc(N(C)C)cc3)NC2=O)cc1
inactive: NCI-H522 47.9 µM | UO-31 > 100 µM | NCI-H460 51.5 µM | 786-0 > 100 µM | SNB-19 > 100 µM | EKVX > 100 µM | MDA-N > 100 µM | PC-3 > 100 µM | HCT-116 > 100 µM | OVCAR-5 > 100 µM | NCI-H226 > 100 µM | T47D 16.7 µM | SK-MEL-28 > 100 µM | KM12 61.1 µM | MOLT-4 92 µM | TK-10 > 100 µM | RXF 393 7.6 µM

c1ccc(Cn2c(-c3ccc(-c4ccccc4)cc3)cc3ccccc32)cc1
inactive: NCI-H522 28.2 µM | LOX IMVI > 100 µM | UO-31 > 100 µM | NCI-H460 > 100 µM | SF-539 > 100 µM | 786-0 > 100 µM | SNB-19 > 100 µM | EKVX > 100 µM | MDA-N > 100 µM | PC-3 > 100 µM | HCT-116 > 100 µM | OVCAR-5 > 100 µM | NCI-H226 > 100 µM | T47D > 100 µM | SK-MEL-28 > 100 µM | KM12 > 100 µM | MOLT-4 > 100 µM | TK-10 > 100 µM

O=C1C=CC(=O)N1n1c(-c2ccccc2)n[nH]c1=O
inactive: NCI-H522 > 100 µM | NCI-H460 > 100 µM | SF-539 > 100 µM | 786-0 > 100 µM | EKVX > 100 µM | MDA-N > 100 µM | PC-3 > 100 µM | HCT-116 > 100 µM | OVCAR-5 > 100 µM | NCI-H226 > 100 µM | T47D > 100 µM | MOLT-4 > 100 µM | TK-10 > 100 µM | RXF 393 > 100 µM

O=C1C2CC=CCC2C(=O)N1n1c(Cc2ccc(Cl)cc2)n[nH]c1=O (stereo not given)
inactive: NCI-H522 > 100 µM | LOX IMVI > 100 µM | UO-31 > 100 µM | 786-0 > 100 µM | EKVX > 100 µM | MDA-N > 100 µM | PC-3 > 100 µM | HCT-116 > 100 µM | OVCAR-5 > 100 µM | NCI-H226 > 100 µM | T47D > 100 µM | SK-MEL-28 > 100 µM | KM12 > 100 µM | MOLT-4 > 100 µM | TK-10 > 100 µM | RXF 393 > 100 µM

CNC(=O)c1cc(NC(=O)N(CCC#N)CCN(C(=O)N[C@@H](Cc2ccccc2)C(=O)N[C@@H](CC(C)C)C(=O)NC)c2ccccc2)ccc1OC
inactive: LOX IMVI 49.3 µM | UO-31 > 52 µM | NCI-H460 15.8 µM | SF-539 36 µM | 786-0 > 55.2 µM | SNB-19 > 59.2 µM | EKVX > 100 µM | MDA-N > 100 µM | PC-3 > 80 µM | HCT-116 > 63.7 µM | OVCAR-5 > 100 µM | NCI-H226 > 100 µM | T47D > 47.6 µM | SK-MEL-28 29.3 µM | KM12 > 62.1 µM | MOLT-4 49.4 µM | TK-10 > 72.6 µM | RXF 393 > 54.6 µM

O=C(O)Cn1cc([N+](=O)[O-])c(=O)c2ccccc21
inactive: NCI-H522 > 100 µM | UO-31 > 100 µM | NCI-H460 > 100 µM | SF-539 > 100 µM | 786-0 > 100 µM | SNB-19 > 100 µM | MDA-N > 100 µM | PC-3 > 100 µM | HCT-116 > 100 µM | OVCAR-5 > 100 µM | NCI-H226 > 100 µM | T47D 18.8 µM | SK-MEL-28 > 100 µM | KM12 > 100 µM | MOLT-4 > 100 µM | TK-10 > 100 µM

Clc1ccc(C(c2ccc(Cl)cc2)c2cncnc2)cc1
inactive: NCI-H522 17.2 µM | LOX IMVI 15.8 µM | UO-31 11.9 µM | NCI-H460 17.6 µM | 786-0 17.3 µM | SNB-19 18.1 µM | EKVX > 10 µM | MDA-N 14.2 µM | PC-3 14.2 µM | HCT-116 13.9 µM | OVCAR-5 15.6 µM | T47D 16.6 µM | SK-MEL-28 18.5 µM | KM12 18.3 µM | MOLT-4 20.6 µM | TK-10 16.9 µM | RXF 393 12.6 µM
